Laboratory results from patent publication US11066446B2, “Cyclic peptide, affinity chromatography support, labeled antibody, antibody drug conjugate, and pharmaceutical preparation” (FUJIFILM Corporation, priority 2016, dated 2021).
Positions of bridges follow the written chain, without caps; N, C: chain ends. Non-standard residues stand in square brackets, D forms with d. Residues, ends and D or L forms follow the SMILES beside them. Triazole bridges read from a SMILES are 1,4-linked. No end group written: not given here. Lys(N3) = [N-]=[N+]=NCCCC[C@H](N)C(=O)O; Orn(N3) = [N-]=[N+]=NCCC[C@H](N)C(=O)O; Dap(N3) = [N-]=[N+]=NC[C@H](N)C(=O)O; Bpg = L-bishomopropargylglycine; Hpra = C#CCC[C@H](N)C(=O)O; Pra = C#CC[C@H](N)C(=O)O

What was measured:
[1] = Stability in human plasma (residual rate by mass spectrometry); settings: 20 minutes at room temperature, 0-minute sample as 100%
Method: After 20 minutes, 100 μL of methanol (manufactured by Wako Pure Chemical Industries, Ltd.) was added thereto such that the reaction stopped. After being stirred, the solution was subjected to centrifugation, and the supernatant was collected and named 20-minute sample. Meanwhile, 100 μL of methanol was added to 20 μL of the human plasma, 2 μL of the aqueous solution of the cyclic peptide was then added thereto, the solution was stirred and subjected to centrifugation, and the supernatant was collected. The collected supernatant was named 0-minute sample.
By regarding the quantified value obtained from the 0-minute sample as 100%, the quantified value obtained from the 20-minute sample was calculated as a residual rate.

[2] = tested on: human immunoglobulin G (IgG) antibodies; test: Relative binding activity to human IgG antibodies by surface plasmon resonance on immobilized sensor chip; settings: SPR (Biacore 3000, CM5 chip), 3,000 nM human IgG for 10 minutes at 25° C., relative to the cyclic peptide of Comparative Example 1 regarded as 1
Method: A commercially available CM5 (carboxymethyl dextran introduction-type, manufactured by GE Healthcare) sensor chip was set in Biacore 3000 (Biacore is a registered trademark) as a surface plasmon resonance device manufactured by GE Healthcare, a 4-(2-hydroxyethyl)-1-piperazineethanesulfonic acid (HEPES) buffer solution (20 mM HEPES-HCl, 150 mM NaCl, pH 7.4) for surface plasmon resonance (SPR) was stabilized at a flow rate of 10 μL/min, and 70 μL of an aqueous mixed solution of 0.2 M 1-(3-Dimethylaminopropyl)-3-ethylcarbodiimide (EDC) and […] of N-Hydroxysuccinimide (NHS) were injected thereinto. Thereafter, 100 μL of a sample solution of the cyclic peptide 1, which was diluted with a HEPES buffer solution at 0.2 g/L and treated with a polytetrafluoroethylene (PTFE) filter (manufactured by Advantec MFS, Inc.) having a diameter of 0.20 μm, was supplied to the sensor chip. Then, a blocking treatment was then performed on the sample solution by using an aqueous ethanolamine solution, and the sensor chip was washed with an aqueous sodium hydroxide solution, thereby performing immobilization. Likewise, 70 μL of an aqueous mixed solution of 0.2 M EDC and 0.04 M NHS was added to the same sensor chip without immobilizing the sample in another flow channel of the sensor chip, and then the blocking treatment and the washing treatment were performed. Hereinafter, the obtained immobilized sensor chip will be referred to as “immobilized sensor chip A”.
At 25° C., 3,000 nM of human immunoglobulin G (IgG) antibodies were added for 10 minutes to the immobilized sensor chip A prepared in (2) described above. Then, the antibody binding amount in the flow channel in which the cyclic peptide was immobilized immediately after the addition and in the flow channel in which the cyclic peptide was not immobilized was measured. From the difference in the antibody binding amount between the flow channel in which the cyclic peptide was immobilized and the flow channel in which the cyclic peptide was not immobilized and the amount of the immobilized cyclic peptide, the activity of the cyclic peptide was calculated. Furthermore, by regarding the activity of a cyclic peptide 5 in Comparative Example 1 as 1, the relative binding activity with respect to the human IgG antibodies was calculated.

[3] = Chemical resistance: rate of change in antibody binding amount of immobilized support before and after alkali treatment; format: physicochemical; settings: peptide-immobilized HiTrap support; human IgG binding amount at 10% leak, before and after 0.05 M aqueous NaOH for 6 hours at 25° C.
Method: 1 mL of HiTrap NHS-activated HP Columns (coupling columns for ligand immobilization, manufactured by GE Healthcare) (HITRAP is a registered trademark) was reacted with 1 mL of 10 mg/mL cyclic peptide solution, which was prepared by dissolving the cyclic peptide 1 in an immobilization buffer (10% DMSO in 200 mM NaHCO3, 500 mM NaCl, pH 8.3), for 1 hour at 25° C. The reaction product was blocked by an aqueous ethanolamine solution and washed, thereby obtaining a cyclic peptide 1-immobilized support. Hereinafter, the obtained immobilized support will be referred to as “immobilized support A”.
The immobilized support A prepared in (4) described above was connected to a chromatography system AKTA avant 25 (manufactured by GE Healthcare) (AKTAAVANT is a registered trademark), and the antibody binding amount was measured. The columns were equilibrated using an equilibration solution (20 mM phosphoric acid buffer, 150 mM NaCl, pH 7.4), and then 20 mL of a 5 mg/mL human IgG antibody standard buffer solution (20 mM phosphoric acid buffer, 150 mM NaCl, pH 7.4) was injected thereinto at a flow rate of 0.21 mL/min. Thereafter, the columns were washed with 5 mL of a postloading wash solution (20 mM phosphoric acid buffer, 150 mM NaCl, pH 7.4) caused to flow at the same flow rate and then washed with 5 mL of a pre-elution wash solution (20 mM phosphoric acid buffer, 1 M NaCl, pH 7.4) at the same flow rate. Then, 5 mL of an elution solution (100 mM citric acid buffer, pH 3.2) was caused to flow at the same flow rate. Subsequently, 5 mL of a cleaning in place (CIP) solution (0.1 M sodium hydroxide) was caused to flow at the same flow rate, and then 5 mL of a reequilibration solution (20 mM phosphoric acid buffer, 150 mM NaCl, pH 7.4) was caused to flow at the same flow rate. At this time, by using an immunoglobulin G (IgG) elution peak obtained by monitoring absorbance at 280 nm, the amount of antibodies binding to the support until 10% of the antibody stock solution leaked out of the support was measured as the antibody binding amount. Then, the immobilized support A was filled with a 0.05 M aqueous NaOH solution for 6 hours at 25° C. and left to stand, the antibody binding amount of the support was then measured in the same manner, and a rate of change in the binding amount was calculated from the antibody binding amount before and after the alkali treatment.

| Compound | Stability in plasma (residual rate) [1] | Relative binding activity [2] | Chemical resistance (rate of change in the binding amount) [3] | Relative binding activity ([2]; listed as Example 16) | Relative binding activity ([2]; listed as Example 9) |
| --- | --- | --- | --- | --- | --- |
| CC(C)C[C@@H]1NC(=O)[C@H](Cc2c[nH]cn2)NC(=O)[C@H](Cc2ccc(O)cc2)NC(=O)[C@H](C)NC(=O)[C@@H](NC(=O)[C@@H](N)CC(=O)O)CCc2cn(nn2)C[C@@H](C(=O)N[C@H](C(=O)N[C@@H](CCCCN)C(=O)N[C@@H](CCCCN)C(=O)O)[C@@H](C)O)NC(=O)[C@H](Cc2c[nH]c3ccccc23)NC(=O)[C@H](C(C)C)NC(=O)[C@H](CC(C)C)NC(=O)[C@H](CCC(=O)O)NC(=O)CNC1=O [Cyclic peptide 4, Asp-[Hpg]-Ala-Tyr-His-Leu-Gly-Glu-Leu-Val-Trp-[Ala(N3)]-Thr-Lys-Lys] (H-D[Hpra]AYHLGELVW[Dap(N3)]TKK-OH; triazole 2-12; N-terminus and C-terminus assumed) | A (The rate of change in the binding amount was higher than 90%) | – | – | – | – |
| CC(C)C[C@@H]1NC(=O)[C@H](CCC(=O)O)NC(=O)CNC(=O)[C@H](CCCNC(=N)N)NC(=O)[C@H](Cc2c[nH]cn2)NC(=O)[C@H](Cc2ccc(O)cc2)NC(=O)[C@H](C)NC(=O)[C@@H](NC(=O)[C@@H](N)CC(=O)O)CCC(=O)NCCCC[C@@H](C(=O)N[C@H](C(=O)N[C@@H](CCCCN)C(=O)N[C@@H](CCCCN)C(=O)O)[C@@H](C)O)NC(=O)[C@H](Cc2c[nH]c3ccccc23)NC(=O)[C@H](C(C)C)NC1=O [Cyclic peptide 17, Asp-[Glu]-Ala-Tyr-His-Arg-Gly-Glu-Leu-Val-Trp-[Lys]-Thr-Lys-Lys, reference compound] (HELM PEPTIDE1{D.E.A.Y.H.R.G.E.L.V.W.K.T.K.K}$PEPTIDE1,PEPTIDE1,2:R3-12:R3$$$V2.0; N-terminus and C-terminus assumed) | E (The rate of change in the binding amount was equal to or lower than 50%) | – | – | – | – |
| Asp-[Lys(N3)]-Ala-Tyr-His-Arg-Gly-Glu-Leu-Val-Trp-[Bpg]-Thr-Lys-Lys (D[Lys(N3)]AYHRGELVW[Bpg]TKK; triazole 2-12) [Cyclic peptide 1, [Lys(N3)] and [Bpg] cross-linked through a triazole bond] | A (The rate of change in the binding amount was higher than 90%) | A (The relative binding activity was higher than 800% of the binding activity of the cyclic peptide 5) | B (The rate of change in the binding amount was higher than 80% and equal to or lower than 90%) | – | – |
| Asp-[Lys(N3)]-Ala-Tyr-His-Leu-Gly-Glu-Leu-Val-Trp-[Bpg]-Thr-Lys-Lys (D[Lys(N3)]AYHLGELVW[Bpg]TKK; triazole 2-12) [Cyclic peptide 2, [Lys(N3)] and [Bpg] cross-linked through a triazole bond] | A (The rate of change in the binding amount was higher than 90%) | A (The relative binding activity was higher than 800% of the binding activity of the cyclic peptide 5) | A (The rate of change in the binding amount was higher than 90%) | – | – |
| Asp-[Nva(N3)]-Ala-Tyr-His-Leu-Gly-Glu-Leu-Val-Trp-[Bpg]-Thr-Lys-Lys (D[Orn(N3)]AYHLGELVW[Bpg]TKK; triazole 2-12) [Cyclic peptide 16, [Nva(N3)] and [Bpg] cross-linked through a triazole bond] | – | B (The relative binding activity was higher than 400% and equal to or lower than 800% of the binding activity of the cyclic peptide 5) | A (The rate of change in the binding amount was higher than 90%) | C or a higher grade | – |
| Asp-[Pra]-Ala-Tyr-His-Leu-Gly-Glu-Leu-Val-Trp-[Lys(N3)]-Thr-Lys-Lys (D[Pra]AYHLGELVW[Lys(N3)]TKK; triazole 2-12) [Cyclic peptide 9, [Pra] and [Lys(N3)] cross-linked through a triazole bond] | – | B (The relative binding activity was higher than 400% and equal to or lower than 800% of the binding activity of the cyclic peptide 5) | A (The rate of change in the binding amount was higher than 90%) | – | C or a higher grade |
| Lys-Lys-Lys-Asp-[Hpg]-Ala-Tyr-His-Leu-Gly-Glu-Leu-Val-Trp-[Ala(N3)]-Thr (KKKD[Hpra]AYHLGELVW[Dap(N3)]T; triazole 5-15) [Cyclic peptide 5, [Hpg] and [Ala(N3)] cross-linked through a triazole bond] | – | A (The relative binding activity was higher than 800% of the binding activity of the cyclic peptide 5) | A (The rate of change in the binding amount was higher than 90%) | – | – |
